From patent US20080274208A1, “Water treatment containing DBNPA for use in sanitizing recreational water” (priority 2007, published 2008)

Legend:
[1] = system: eight species of bacteria and four species of fungi typically found in swimming pool water; test: Model swimming pool recirculating sand filter system: water clarity (turbidity) under daily microbial challenge; assay type: cell-based; conditions: Table 1; synthetic pool water 80-90° F, daily inoculation and bather load; DBNPA 2 ppm daily; H2O2 27.5 ppm start, 7 ppm weekly; potassium monopersulfate 12 ppm initial and weekly; PHMB 6 ppm; 88 day test
Method: The purpose of this experiment is to evaluate the robustness or the ability of single or combinations of biocides (plus additionally any other permutations of oxidizers and/or adjuvants) to prevent inoculated microorganisms from establishing colonies in the water and sand filter media, thus preventing bio-fouling of the system.
800 ml of synthetic swimming pool water (water containing calcium chloride dihydrate and sodium hydrogen carbonate solution at neutral pH) was pumped through a body of swimming pool filter sand by means of a peristaltic pump. The water temperature of each system was maintained in the range of 80-90° F. The biocide 2,2-dibromo-3-nitrilopropionamide (DBNPA) was added daily at a concentration of 2 ppm. When required, oxidizer hydrogen peroxide was added at a concentration of 27.5 ppm at the start of experiment, and 7 ppm weekly thereafter, and the loss of hydrogen peroxide in each system is monitored by calorimetric assay. […]
Model water turbidity was measured on a daily basis) using a Hach 2100P turbidimeter to measure water sample nephelometric turbidity units (NTUs). […]
The performance of the candidate treatment regimens was determined by the number of days the water clarity was maintained below 1.0 NTU (Nephelometric Turbidity Units). […]

[2] = system: four species of fungi typically found in swimming pool water; test: Model swimming pool system: viable fungi by agar plate counts (Sabaroud-Dextrose agar); assay type: cell-based, Paecilomyces and Trichoderma; conditions: Table 1; upon exceeding turbidity threshold (or at test end); DBNPA 2 ppm daily with/without oxidizer; PHMB 6 ppm
Method: (§1) The synthetic swimming pool water samples dosed with combinations of DBNPA, hydrogen peroxide, potassium monopersulfate and/or DDAC were compared to the performance of the commercially available Baquacil® swimming pool chemical treatment system (available commercially from Arch Chemicals, Inc., Norwalk, Conn.). […] PHMB), by addition of daily or weekly doses of the biocide. Hydrogen peroxide is added monthly at a concentration of 27.5 ppm. The samples were challenged on a daily basis with eight species of bacteria and four species of fungi typically found in swimming pool water. These microorganisms include species of the fungi Paecilomyces and Trichoderma, and species of the bacteria Alcaligenes, Chryseobacterium and Sphingomonas. Each inoculation represents a total addition of 0.8×10^6 microorganisms per model apparatus. In addition, 5 ml of synthetic bather load is added to the system on a daily basis, as a nutrient source for the microorganisms present in the system. The bather load consists of carbon, nitrogen and macro/micro nutrient sources such as urea, albumin, creatinine, lactic acid, uric acid, glucuronic acid, sodium chloride, sodium sulfate, ammonium chloride, sodium bicarbonate, potassium phosphate potassium sulfate. The total number of viable bacteria and fungi present in each sample was determined weekly by conducting agar plate counts. […]

[3] = system: eight species of bacteria typically found in swimming pool water; test: Model swimming pool system: viable bacteria by agar plate counts (CLED agar); assay type: cell-based, Alcaligenes, Chryseobacterium and Sphingomonas; conditions: Table 1; upon exceeding turbidity threshold (or at test end); DBNPA 2 ppm daily with/without oxidizer; PHMB 6 ppm
Method: as §1

For N#CC(Br)(Br)C(N)=O [DBNPA, 2,2-dibromo-3-nitrilopropionamide], the “Number of Days of Clarity below 1.0 NTU” value [1] was 59 days, the “Fungal Counts at Clarity of 1.0 NTU or above” value [2] was 5 × 10^0 CFU/ml and the “Bacterial Counts at Clarity of 1.0 NTU or above” value [3] was 1.39 × 10^5 CFU/ml.
